ChEMBL document CHEMBL1142142, “Synergistic activities of azithromycin and amphotericin B against Naegleria fowleri in vitro and in a mouse model of primary amebic meningoencephalitis” (Antimicrob Agents Chemother, 2007)
Active and inactive are the calls of the source. The rule behind the calls is not given here.

What was measured:
[1] = test system: Mus musculus; assay: Protection against Naegleria fowleri Lee (M67) infection in CD1 mouse at 2.5 mg/kg/day, ip; format: functional; conditions: route intraperitoneal
[2] = test system: Mus musculus; assay: Effect on mean time to death in Naegleria fowleri Lee (M67) infected CD1 mouse at 2.5 mg/kg, ip in presence of azithromycin; format: functional, organism-based; set-up: dose 2.5 mg/kg
[3] = test system: Naegleria fowleri; assay: Antimicrobial activity against Naegleria fowleri Lee (M67) at day 3; format: functional, organism-based; conditions: 72 h
[4] = test system: Mus musculus; assay: Protection against Naegleria fowleri Lee (M67) infection in CD1 mouse at 2.5 mg/kg, ip in presence of azithromycin; format: functional; conditions: route intraperitoneal
[5] = test system: Naegleria fowleri; assay: Antimicrobial activity against Naegleria fowleri Lee (M67) in presence of amphotericin B at 1:1 ratio on day 3; format: functional
[6] = test system: Naegleria fowleri; assay: Antimicrobial activity against Naegleria fowleri Lee (M67) at day 2; format: functional, organism-based; conditions: 48 h
[7] = test system: Naegleria fowleri; assay: Antimicrobial activity against Naegleria fowleri Lee (M67) in presence of amphotericin B at 1:3 ratio on day 3; format: functional
[8] = test system: Mus musculus; assay: Effect on mortality in Naegleria fowleri Lee (M67) infected CD1 mouse at 2.5 mg/kg, ip in presence of azithromycin; format: functional; conditions: route intraperitoneal
[9] = test system: Naegleria fowleri; assay: Antimicrobial activity against Naegleria fowleri Lee (M67) in presence of amphotericin B at 3:1 ratio on day 3; format: functional
[10] = test system: Mus musculus; assay: Effect on mean time to death in Naegleria fowleri Lee (M67) infected CD1 mouse at 2.5 mg/kg/day, ip; format: functional; conditions: route intraperitoneal
[11] = test system: Naegleria fowleri; assay: Antimicrobial activity against Naegleria fowleri Lee (M67) in presence of amphotericin B at 1:3 ratio on day 2; format: functional
[12] = test system: Naegleria fowleri; assay: Antimicrobial activity against Naegleria fowleri Lee (M67) in presence of amphotericin B at 3:1 ratio on day 2; format: functional
[13] = test system: Naegleria fowleri; assay: Antimicrobial activity against Naegleria fowleri Lee (M67) in presence of amphotericin B at 1:1 ratio on day 2; format: functional
[14] = test system: Mus musculus; assay: Effect on mortality in Naegleria fowleri Lee (M67) infected CD1 mouse at 2.5 mg/kg/day, ip; format: functional; conditions: route intraperitoneal
[15] = test system: Mus musculus; assay: Protection against Naegleria fowleri Lee (M67) infection in CD1 mouse at 25 mg/kg/day, ip; format: functional; conditions: route intraperitoneal
[16] = test system: Naegleria fowleri; assay: Antimicrobial activity against Naegleria fowleri Lee (M67) in presence of azithromycin at 1:3 ratio on day 2; format: functional
[17] = test system: Naegleria fowleri; assay: Antimicrobial activity against Naegleria fowleri Lee (M67) in presence of azithromycin at 3:1 ratio on day 3; format: functional
[18] = test system: Naegleria fowleri; assay: Antimicrobial activity against Naegleria fowleri Lee (M67) in presence of azithromycin at 1:1 ratio on day 2; format: functional
[19] = test system: Naegleria fowleri; assay: Antimicrobial activity against Naegleria fowleri Lee (M67) in presence of azithromycin at 1:3 ratio on day 3; format: functional
[20] = test system: Naegleria fowleri; assay: Antimicrobial activity against Naegleria fowleri Lee (M67) in presence of azithromycin at 3:1 ratio on day 2; format: functional
[21] = test system: Mus musculus; assay: Effect on mortality in Naegleria fowleri Lee (M67) infected CD1 mouse at 25 mg/kg/day, ip; format: functional; conditions: route intraperitoneal
[22] = test system: Mus musculus; assay: Effect on mean time to death in Naegleria fowleri Lee (M67) infected CD1 mouse at 25 mg/kg/day, ip; format: functional; conditions: route intraperitoneal
[23] = test system: Naegleria fowleri; assay: Antimicrobial activity against Naegleria fowleri Lee (M67) in presence of azithromycin at 1:1 ratio on day 3; format: functional

Structure (SMILES): C[C@@H]1[C@H](O)[C@@H](C)/C=C/C=C/C=C/C=C/C=C/C=C/C=C/[C@H](O[C@@H]2O[C@H](C)[C@@H](O)[C@H](N)[C@@H]2O)C[C@@H]2O[C@](O)(C[C@@H](O)C[C@@H](O)[C@H](O)CC[C@@H](O)C[C@@H](O)CC(=O)O[C@H]1C)C[C@H](O)[C@H]2C(=O)O [AMPHOTERICIN B]
- Activity [1]: 27%
- Activity [2]: Active
- IC50 [3]: 18.3 nM
- Activity [4]: 100%
- FIC50 [5]: 0.309
- IC50 [6]: 26.4 nM
- FIC50 [7]: 0.167
- Activity [8]: 0%
- FIC50 [9]: 0.303
- Activity [10]: 7 days
- FIC50 [11]: 0.311
- FIC50 [12]: 0.254
- FIC50 [13]: 0.241
- Activity [14]: 55%

Structure (SMILES): CC[C@H]1OC(=O)[C@H](C)[C@@H](O[C@H]2C[C@@](C)(OC)[C@@H](O)[C@H](C)O2)[C@H](C)[C@@H](O[C@@H]2O[C@H](C)C[C@H](N(C)C)[C@H]2O)[C@](C)(O)C[C@@H](C)CN(C)[C@H](C)[C@@H](O)[C@]1(C)O [AZITHROMYCIN]
- Activity [15]: 40%
- FIC50 [16]: 0.464
- FIC50 [17]: 0.103
- FIC50 [18]: 0.238
- FIC50 [19]: 0.55
- FIC50 [20]: 0.088
- IC50 [3]: 3.1 nM
- Activity [21]: 45%
- IC50 [6]: 2.6 nM
- Activity [22]: 12.4 days
- FIC50 [23]: 0.308
